Reference: US12637453B2, “Pyrazolopyridine inhibitors of c-Jun-n-Terminal kinases and uses thereof” (Dana-Farber Cancer Institute, Inc., priority 2019, dated 2026)

Tests used:
Assay type in all cases: biochemical
JNK3 = JNK3 (Homo sapiens, UniProt P53779); experiment: IC50 assay for JNK kinase inhibition, JNK3
JNK1 = JNK1 (Homo sapiens, UniProt P45983); experiment: IC50 assay for JNK kinase inhibition, JNK1
JNK2 = JNK2 (Homo sapiens, UniProt P45984); experiment: IC50 assay for JNK kinase inhibition, JNK2
Sequence of JNK2 (P45984 whole entry): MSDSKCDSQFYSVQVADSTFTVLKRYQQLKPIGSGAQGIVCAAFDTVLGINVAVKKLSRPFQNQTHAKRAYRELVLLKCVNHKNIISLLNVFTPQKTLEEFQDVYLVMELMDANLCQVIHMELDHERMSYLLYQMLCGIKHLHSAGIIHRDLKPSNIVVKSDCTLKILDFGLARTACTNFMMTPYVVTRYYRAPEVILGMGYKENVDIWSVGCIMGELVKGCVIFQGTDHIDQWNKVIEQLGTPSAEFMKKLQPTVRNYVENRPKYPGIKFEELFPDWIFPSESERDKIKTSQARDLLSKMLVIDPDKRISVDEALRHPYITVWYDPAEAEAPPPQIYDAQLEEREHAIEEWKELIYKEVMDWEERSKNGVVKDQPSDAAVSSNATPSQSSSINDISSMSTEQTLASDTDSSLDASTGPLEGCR

Sequence of JNK3 (P53779 whole entry): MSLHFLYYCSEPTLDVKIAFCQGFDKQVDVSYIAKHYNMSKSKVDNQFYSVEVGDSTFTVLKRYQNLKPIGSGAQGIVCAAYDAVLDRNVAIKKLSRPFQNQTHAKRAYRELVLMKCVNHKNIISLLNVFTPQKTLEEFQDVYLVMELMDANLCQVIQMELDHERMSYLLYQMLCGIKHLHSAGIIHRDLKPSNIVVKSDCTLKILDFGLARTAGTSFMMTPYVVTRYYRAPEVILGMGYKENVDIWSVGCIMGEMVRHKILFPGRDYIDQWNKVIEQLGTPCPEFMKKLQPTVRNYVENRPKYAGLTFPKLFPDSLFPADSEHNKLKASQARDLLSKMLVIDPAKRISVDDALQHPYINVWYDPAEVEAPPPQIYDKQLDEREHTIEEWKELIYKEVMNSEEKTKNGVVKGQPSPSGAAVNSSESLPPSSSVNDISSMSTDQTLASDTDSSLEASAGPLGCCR
Sequence of JNK1 (P45983 whole entry): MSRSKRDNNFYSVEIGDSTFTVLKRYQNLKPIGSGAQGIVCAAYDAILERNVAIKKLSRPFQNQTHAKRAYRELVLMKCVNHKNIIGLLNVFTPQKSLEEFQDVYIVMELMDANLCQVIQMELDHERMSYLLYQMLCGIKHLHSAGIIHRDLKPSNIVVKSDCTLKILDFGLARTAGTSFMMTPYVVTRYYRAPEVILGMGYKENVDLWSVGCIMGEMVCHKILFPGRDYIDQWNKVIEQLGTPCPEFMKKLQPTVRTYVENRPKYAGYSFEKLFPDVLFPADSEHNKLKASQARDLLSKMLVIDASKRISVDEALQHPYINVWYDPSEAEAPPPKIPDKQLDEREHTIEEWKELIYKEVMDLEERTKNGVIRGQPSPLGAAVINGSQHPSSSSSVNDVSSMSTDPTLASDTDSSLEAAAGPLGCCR

IC50 (JNK3) | IC50 (JNK1) | IC50 (JNK2) | Compound
22.5 nM | 21.4 nM | 2.88 nM | Nc1ccc(C(=O)N2CCC[C@H](Nc3nccc(-c4c(-c5ccccc5)nn5ccccc45)n3)C2)cc1 [I-4, (S)-(4-aminophenyl)(3-((4-(2-phenylpyrazolo[1,5-a]pyridin-3-yl)pyrimidin-2-yl)amino)piperidin-1-yl)methanone]
20 nM | 308 nM | 31 nM | CN(C)C/C=C/C(=O)Nc1ccc(C(=O)N2CCCC[C@H](Nc3nccc(-c4c(-c5ccccc5)nn5ccccc45)n3)C2)cc1 [I-13, (S,E)-4-(dimethylamino)-N-(4-(3-((4-(2-phenylpyrazolo[1,5-a]pyridin-3-yl)pyrimidin-2-yl)amino)azepane-1-carbonyl)phenyl)but-2-enamide]
16.2 nM | 26 nM | 5.67 nM | C=CC(=O)Nc1ccc(C(=O)N2CCC[C@H](Nc3nccc(-c4c(-c5ccccc5)nn5ccccc45)n3)C2)cc1 [I-3, (S)-N-(4-(3-((4-(2-phenylpyrazolo[1,5-a]pyridin-3-yl)pyrimidin-2-yl)amino)piperidine-1-carbonyl)phenyl)acrylamide]
274 nM | 2390 nM | 85.8 nM | Cc1ccc2c(-c3ccnc(N[C@@H]4CN(C(=O)c5ccc(NC(=O)/C=C/CN(C)C)cc5)C[C@@H]4C)n3)c(-c3ccccc3)nn2c1 [I-31, (E)-4-(dimethylamino)-N-(4-((3S,4S)-3-methyl-4-((4-(6-methyl-2-phenylpyrazolo[1,5-a]pyridin-3-yl)pyrimidin-2-yl)amino)pyrrolidine-1-carbonyl)phenyl)but-2-enamide]
790 nM | 2600 nM | 99.5 nM | C[C@H]1CN(C(=O)c2ccc(NC(=O)CCCN(C)C)cc2)C[C@H]1Nc1nccc(-c2c(-c3ccccc3)nn3ccccc23)n1 [I-27, 4-(dimethylamino)-N-(4-((3S,4S)-3-methyl-4-((4-(2-phenylpyrazolo[1,5-a]pyridin-3-yl)pyrimidin-2-yl)amino)pyrrolidine-1-carbonyl)phenyl)butanamide]
40.3 nM | 481 nM | 38.9 nM | CN(C)C/C=C/C(=O)Nc1ccc(C(=O)NC2CCCC(Nc3nccc(-c4c(-c5ccccc5)nn5ccccc45)n3)C2)cc1 (stereo not drawn) [I-15, (E)-4-(4-(dimethylamino)but-2-enamido)-N-(3-((4-(2-phenylpyrazolo[1,5-a]pyridin-3-yl)pyrimidin-2-yl)amino)cyclohexyl)benzamide]
20 nM | 64 nM | 11 nM | CN(C)CCCC(=O)Nc1ccc(C(=O)N2CCC[C@H](Nc3nccc(-c4c(-c5ccccc5)nn5ccccc45)n3)C2)cc1 [I-2, (S)-4-(dimethylamino)-N-(4-(3-((4-(2-phenylpyrazolo[1,5-a]pyridin-3-yl)pyrimidin-2-yl)amino)piperidine-1-carbonyl)phenyl)butanamide]
25 nM | 12.5 nM | 2.75 nM | CN(C)C/C=C/C(=O)Nc1ccc(C(=O)N2CC[C@@H](Nc3nccc(-c4c(-c5ccccc5)nn5ccccc45)n3)C2)cc1 [I-7, (R,E)-4-(dimethylamino)-N-(4-(3-((4-(2-phenylpyrazolo[1,5-a]pyridin-3-yl)pyrimidin-2-yl)amino)pyrrolidine-1-carbonyl)phenyl)but-2-enamide]
2.36 nM | 44.7 nM | 3.65 nM | CN(C)C/C=C/C(=O)Nc1ccc(C(=O)N2CCC[C@H](Nc3nccc(-c4c(-c5ccccc5)nn5ccccc45)n3)C2)cc1 [I-1, (S,E)-4-(dimethylamino)-N-(4-(3-((4-(2-phenylpyrazolo[1,5-a]pyridin-3-yl)pyrimidin-2-yl)amino)piperidine-1-carbonyl)phenyl)but-2-enamide]
> 3330 nM | 1810 nM | 222 nM | COc1cccn2nc(-c3ccccc3)c(-c3ccnc(N[C@@H]4CN(C(=O)c5ccc(NC(=O)/C=C/CN(C)C)cc5)C[C@@H]4C)n3)c12 [I-32, (E)-4-(dimethylamino)-N-(4-((3S,4S)-3-((4-(4-methoxy-2-phenylpyrazolo[1,5-a]pyridin-3-yl)pyrimidin-2-yl)amino)-4-methylpyrrolidine-1-carbonyl)phenyl)but-2-enamide]
252 nM | 314 nM | 29 nM | CN(C)CCCC(=O)Nc1ccc(C(=O)N2CCCC[C@H](Nc3nccc(-c4c(-c5ccccc5)nn5ccccc45)n3)C2)cc1 [I-14, (S)-4-(dimethylamino)-N-(4-(3-((4-(2-phenylpyrazolo[1,5-a]pyridin-3-yl)pyrimidin-2-yl)amino)azepane-1-carbonyl)phenyl)butanamide]
